The text below walks through data of patent US20090325944A1, “Methods and Compositions for Modulating Glycosylation” (priority 2006, published 2009).

The assay concerns the target T1, sOGT (Homo sapiens, UniProt O15294).
T1 construct: ncOGT and sOGT are identical to known splice variants; His8 (C); made in house; host or cells: E. coli BL21(DE3)
T1 sequence (O15294 1-665 isoform O15294-4): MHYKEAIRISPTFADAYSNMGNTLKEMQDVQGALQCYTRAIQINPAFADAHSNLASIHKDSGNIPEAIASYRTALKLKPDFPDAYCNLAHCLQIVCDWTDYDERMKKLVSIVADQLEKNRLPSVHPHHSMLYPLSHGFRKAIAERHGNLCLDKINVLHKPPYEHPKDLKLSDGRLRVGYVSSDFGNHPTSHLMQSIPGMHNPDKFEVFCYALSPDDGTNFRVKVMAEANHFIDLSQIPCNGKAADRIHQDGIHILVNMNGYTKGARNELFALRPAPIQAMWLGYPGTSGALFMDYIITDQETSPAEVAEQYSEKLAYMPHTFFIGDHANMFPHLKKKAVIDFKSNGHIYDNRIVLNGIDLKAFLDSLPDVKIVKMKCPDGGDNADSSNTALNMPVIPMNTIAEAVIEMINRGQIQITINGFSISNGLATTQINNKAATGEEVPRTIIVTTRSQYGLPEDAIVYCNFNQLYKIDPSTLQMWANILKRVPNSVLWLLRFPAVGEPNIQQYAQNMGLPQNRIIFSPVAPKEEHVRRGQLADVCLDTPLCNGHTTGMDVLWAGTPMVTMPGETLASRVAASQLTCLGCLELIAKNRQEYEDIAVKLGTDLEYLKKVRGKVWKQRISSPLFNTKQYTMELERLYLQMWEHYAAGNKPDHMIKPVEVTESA
Kind of assay: Fluorescence polarization displacement of probe 3 from sOGT (validation with UDP and UDP-GlcNAc). Format: binding. On the procedure:
20 μL of this solution is transferred to wells of a 384-well microplate. […] Fluorescence polarization was measured using a Perkin Elmer Envision® microplate reader. Bach series was performed in triplicate and the average of each data point was converted from mP to anisotropy then fitted to the following equation:
[L]0=(KD(Amax−A)/Kd(A−Amin)+1)([E]0−Kd(A−Amin)/(Amax−A)−[t]0(A−Amin)/(Amax−Amin)) eq 3
where A=measured anisotropy at a particular total concentration of ligand (L), sOGT (E) and probe 3 (t), Amin=minimum polarization (i.e., anisotropy of free probe), Amax=final anisotropy (i.e., anisotropy of probe 3 bound entirely to sOGT), KD=dissociation constant of the ligand, Kd=dissociation constant of the probe 3.
For orientation: Polarisation of emitted light reports the rotation of a fluorescent probe.

As for `O=c1ccn([C@@H]2O[C@H](COP(=O)(O)OP(=O)(O)O)[C@@H](O)[C@H]2O)c(=O)[nH]1` [UDP], where the note is “50 nM probe 3, […] sOGT, ligand 50 μM to 98 nM, read-out: KD (dissociation constant) from displacement of probe 3 from sOGT”, the Kd amounted to 800 ± 300 nM. The “extent of displacement of probe 3 from sOGT” value (at high concentrations of ligand) is “completely displaced probe 3 from sOGT”.

As usually defined, the Kd is the free concentration of one partner at which half of the binding sites on the other are occupied at equilibrium, for simple one-to-one binding.
